Measurements reported in PubChem BioAssay AID1249 (Columbia University Molecular Screening Center, 2008).
The source made the active and inactive calls. The rule behind the calls is not given here.

What was measured:
[1] = system: cell-based imaging, cytoskeleton assembly phenotype, high content; experiment: cellular cytoskeleton assembly phenotype modulators – imaging, high-content imaging, retest and dose response, confirmation (AID 1249);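 note: compound exposure lasted 24 h before fixation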
[2] = as above; settings: cell-based imaging, cytoskeleton assembly phenotype, high content; cell count; at 10 µM; stronger effect = lower value

SMILES	IC50 [1]	cell count [2] [%]
CCOc1ccccc1C(=O)N1CCN(c2cccc(Cl)c2)CC1	1.25 µM	36.6
COc1ccc(NC(=O)/C(Cl)=C(/Cl)S(=O)Cc2ccc(C)cc2)cn1 (centres undefined)	> 10 µM (inactive)	63.4
O=C(Nc1nc(-c2ccncc2)cs1)C1COc2ccccc2O1 (centres undefined)	> 10 µM (inactive)	92.2
CCOC(=O)Nc1nc(-c2ccccc2)c(C(=O)c2ccccc2)s1	> 10 µM (inactive)	53.7
O=C(O)C1CCCCC1C(=O)Nc1cc(Cl)ccc1Cl (centres undefined)	> 10 µM (inactive)	94.2
O=C(c1ccc(Br)cc1)c1cc([N+](=O)[O-])ccc1N1CCCCC1	> 10 µM (inactive)	81.7
CCN(CC)c1ccc2cc(-c3nc4ccccc4n3C)c(=O)oc2c1	> 10 µM (inactive)	99.7
COC(=O)C1CN(C#N)N(c2ccc(Cl)cc2)C12c1ccccc1-c1ccccc12 (centres undefined)	> 10 µM (inactive)	85.3
Cc1cc(=O)oc2cc(OCC3CC(c4ccccc4Cl)=NO3)ccc12 (centres undefined)	> 10 µM (inactive)	92.5
COc1ccc(NC(=O)/C(Cl)=C(/Cl)S(=O)Cc2ccccc2)cn1 (centres undefined)	> 10 µM (inactive)	48.1
Cc1ccc(NC(=O)Cn2nnc(-c3ccccc3NC(=O)c3cccs3)n2)cc1	> 10 µM (inactive)	109
CC1=C([N+](=O)[O-])C(c2cccc(Br)c2)C2=C(N1)c1ccccc1C2=O (centres undefined)	2.65 µM	30.8
O=C1C(=O)c2ccc(-c3ccccc3)cc2-c2ccccc21	> 10 µM (inactive)	111
CCN(CC)c1ccc2c(c1)OC(N)=C(C#N)C2c1cccnc1 (centres undefined)	0.625 µM	33.7
CCCCN1C(=O)/C(=C/C=C2\N(C)c3ccccc3C2(C)C)SC1=S	> 10 µM (inactive)	94.3
CC1=CC(C)(C)N(S(=O)(=O)c2ccc(C)cc2)c2cc(C)ccc21	> 10 µM (inactive)	90.8
COc1ccc(-c2c/c(=N\c3nc(-c4ccccc4)c(C)s3)c3ccccc3o2)cc1O	> 10 µM (inactive)	113
CCCC1=Nc2cc(C(=O)NCCCOCC)ccc2Sc2ccccc21	0.873 µM	37.3
CCSc1nc2ccccc2n1C(=O)/C=C\c1ccc(OC)c(OC)c1	> 10 µM (inactive)	111
CC(/C=N/NC(=O)c1cc(-c2ccncc2)nc2ccccc12)=C\c1ccco1	4.55 µM	35.1
O=S(=O)(c1ccc2c(c1)C(=NO)c1cc(S(=O)(=O)N3CCCCC3)ccc1-2)N1CCCCC1	> 10 µM (inactive)	126
Cc1ccc(NC2=C/C(=N\S(=O)(=O)c3cccs3)c3ccccc3C2=O)c(C)c1	> 10 µM (inactive)	79.8
COC(=O)C[C@]1(C(=O)OC)CN(C#N)N(c2ccc(Cl)cc2)C12c1ccccc1-c1ccccc12	> 10 µM (inactive)	82

SMILES	IC50 [1]	cell count [2] [%]
O=C1CC(c2cc(Br)ccc2F)c2cc3c(cc2N1)CCC3 (centres undefined)	> 10 µM (inactive)	105
COc1cc(C2C3=C(Nc4ncnn42)c2ccccc2CC3)cc(OC)c1OC (centres undefined)	5 µM	43.2
Cc1ccc(C(=O)OCn2ncc(Cl)c(Cl)c2=O)cc1	3.08 µM	1.4
Cn1cc(/C=N/n2cnc3scc(-c4ccc(Cl)cc4)c3c2=O)c2ccccc21	> 10 µM (inactive)	60.8
COCCN1C(=O)c2oc3c(C)cc(C)cc3c(=O)c2C1c1cccc(O)c1 (centres undefined)	> 10 µM (inactive)	86
O=C(N/N=C/C(Br)=C\c1ccccc1)c1n[nH]c2c1CCC2	0.582 µM	33.3
CN(C)c1ccc(C(=O)c2ccc(N(C)C)c3ccccc23)cc1	0.599 µM	28.2
CCCOc1ccccc1C1CC(=O)Nc2cc3c(cc21)OCCO3 (centres undefined)	> 10 µM (inactive)	125
O=C(c1ccco1)N1CCN(C(=O)N2c3ccccc3Sc3ccccc32)CC1	> 10 µM (inactive)	42
CCN(CC)c1ccc(-c2nn3c(-c4ccccc4OC)nnc3s2)cc1	1.7 µM	25.6
CCOC(=O)c1[nH]c(C)c(C(=O)N2CCc3ccccc32)c1C	5 µM	31.8
CC(/C=N/NC(=O)c1cc(-c2ccc(Cl)cc2)nc2ccccc12)=C\c1ccco1	> 10 µM (inactive)	115
CC(C)Oc1ccccc1C1CC(=O)Nc2cc3c(cc21)OCCO3 (centres undefined)	> 10 µM (inactive)	88.5
N#CC1=C2SCC(O)(c3ccccc3)N2C(=O)CC1c1cccs1 (centres undefined)	> 10 µM (inactive)	26.4
CCC1=Nc2cc(C(=O)NCCCOC)ccc2Sc2ccccc21	> 10 µM (inactive)	29.1
CSc1nc(N(C)NC(=O)c2cccc(C)c2)c2ccccc2n1	> 10 µM (inactive)	31.6
COc1ccc(CCNc2nnc(Sc3nnnn3-c3ccccc3)s2)cc1OC	1.87 µM	32.1
CCN(CC)c1ccc2cc(-c3nc4ccccc4[nH]3)c(=O)oc2c1	> 10 µM (inactive)	96.6
Cc1ccc(Nc2nc(-c3c(C)nc4ccccn34)cs2)cc1	1.37 µM	31.8
COc1cc(N2CCCC2)c(OC)cc1/C=c1/sc2nc3ccccc3n2c1=O	> 10 µM (inactive)	87.5
Cc1ccc2[nH]c(-c3ccccc3)cc(=O)c2c1	> 10 µM (inactive)	41.3
O=Cc1cc2ccccc2nc1SCc1ccc(Cl)c(Cl)c1	> 10 µM (inactive)	94.3
COc1ccc(OC)c(C2C3=C(COC3=O)Nc3cc4c(cc32)OCO4)c1 (centres undefined)	> 10 µM (inactive)	102

SMILES	IC50 [1]	cell count [2] [%]
N#CC1=C(N)Oc2c(ccc3ccccc23)C1c1cccs1 (centres undefined)	> 10 µM (inactive)	28.9
COc1ccccc1-n1cnc2cc(NCc3cccs3)ccc21	3.24 µM	31.6
Cc1cc(C)c(S(=O)(=O)Nc2ccc3c4c(cccc24)CC3)c(C)c1	> 10 µM (inactive)	78.5
COc1ccc(-c2cc(C(F)(F)F)n3nc(C(=O)Nc4cc(C)on4)cc3n2)cc1OC	> 10 µM (inactive)	92.1
CCOc1cc(CNc2ccc3c(c2)OCCO3)cc(Br)c1OC	> 10 µM (inactive)	37.1
CCn1c2ccccc2c2cc(NC(=O)c3cc(OC)c(OC)c(OC)c3)ccc21	1.73 µM	32.4
COc1cc(C2C(C#N)=C(C)NC3=C2C(=O)c2ccccc23)cc(OC)c1OC (centres undefined)	1.55 µM	34
CCCCCOc1ccc(Br)cc1/C(C)=N/NC1=NCCN1	5.97 µM	19.4
O=C(N/N=C/C(Br)=C/c1ccccc1)c1n[nH]c2c1CCC2	5 µM	30.8
C=CCSc1nc2ccccc2n1C(=O)/C=C/c1cc(OC)c(OC)c(OC)c1	> 10 µM (inactive)	102
COc1cc2c3nnc(-c4ccc(F)cc4)c-3cn(Cc3ccccc3)c2cc1OC	> 10 µM (inactive)	86.3
Cc1c(C(=O)OCC(C)C)[nH]c2c1C(=O)CC(c1ccco1)C2 (centres undefined)	> 10 µM (inactive)	38.8
CCCOC(=O)c1[nH]c2c(c1C)C(=O)CC(c1cccs1)C2 (centres undefined)	> 10 µM (inactive)	40.1
CCOC(=O)c1[nH]c(C)c(C(=O)c2cc(F)ccc2F)c1C	> 10 µM (inactive)	48.7
N=c1oc2c3c4c(cc2cc1C(=O)Nc1ccccc1)CCCN4CCC3	8.21 µM	99.4
COc1ccc(C2=Nn3c(nnc3-c3ccc(OC)cc3)SC2)cc1	> 10 µM (inactive)	91.1
CCOc1ccc(S(=O)(=O)Nc2cc(OC)ccc2OC)cc1	> 10 µM (inactive)	44.2
COc1cc(-c2nnc3n2N=C(c2ccccc2)CS3)cc(OC)c1OC	> 10 µM (inactive)	90.7
Cc1cc(C)c2nc(SCC(=O)N3CC(=O)Nc4ccccc43)c(C#N)cc2c1	> 10 µM (inactive)	51.1
CC(C)Oc1ccccc1C1CC(=O)Nc2cc3c(cc21)OCO3 (centres undefined)	> 10 µM (inactive)	113
CC1CCC/C=C/C2CC(O)CC2C(O)/C=C/C(=O)O1 (centres undefined)	> 10 µM (inactive)	33.9
